# Laboratory results published in US20150056186A1, “COMBINATION THERAPY OF A TYPE II ANTI-CD20 ANTIBODY WITH AN ANTI-BCL-2 ACTIVE AGENT” (Hoffmann-La Roche Inc., priority 2007, published 2015).
# Experiments:
# [1] = test system: Z138 human B-Cell Non-Hodgkin-lymphoma (NHL) cells; assay: Tumor growth inhibition study in vivo, Z138 MCL xenografts in SCID beige mice; conditions: 10 mg/kg i.v. q7d
# Text: Z138 human B-Cell Non-Hodgkin-lymphoma (NHL) cells were originally obtained from Glycart (Mantle cell lymphoma-MCL). […] Passage 2 was used for transplantation.
# Animal treatment started at day of randomisation, 14 days after s.c. cell transplantation.
# Therefore s.c. xenografts models in SCID beige mice are not appropriate for mimicking human ADCC mediated effect with glycoengineered modified antibodies.
# [2] = molecular target: T1, CD20 on Raji cells (ATCC-No. CCL-86) (Homo sapiens, UniProt P11836); assay: Ratio of the binding capacities to CD20 on Raji cells compared to rituximab (direct immunofluorescence, Cy5, FACSArray); conditions: Cy5-conjugated antibodies, MFI at EC50, corrected for Cy5-labeling ratio
# T1 construct: generated by direct immunofluorescence using the Burkitt's lymphoma cell line Raji (ATCC-No. CCL-86); host or cells: Raji cells
# T1 sequence (P11836 1-297): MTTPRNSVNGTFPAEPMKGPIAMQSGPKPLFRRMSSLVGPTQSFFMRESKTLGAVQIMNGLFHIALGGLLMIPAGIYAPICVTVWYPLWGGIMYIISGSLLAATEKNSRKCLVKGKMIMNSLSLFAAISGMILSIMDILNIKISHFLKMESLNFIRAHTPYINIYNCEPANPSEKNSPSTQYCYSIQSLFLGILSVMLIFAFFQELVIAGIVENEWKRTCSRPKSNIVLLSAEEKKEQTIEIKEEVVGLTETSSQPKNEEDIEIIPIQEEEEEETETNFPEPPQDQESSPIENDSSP
# Procedure: MFI is the mean fluorescent intensity. The “Cy5-labeling ratio” as used herein means the number of Cy5-label molecules per molecule antibody.
# Raji cells (ATCC-No. CCL-86) were maintained in culture in RPMI-1640 medium (PanBiotech GmbH, Cat.-No. PO4-18500) containing 10% FCS (Gibco, Cat.-No. 10500-064). […] 5*10^5 cells per sample were stained for 30 min at 4° C. Afterwards, cells were washed in culture medium. Propidium iodide (PI) staining was used to exclude dead cells.
# Then the ratio of the binding capacities to CD20 on Raji cells (ATCC-No. CCL-86) is calculated according to the following formula: […]
substance,measurement,setting,value
"B-HH6-B-KV1 wt: Type II anti-CD20 antibody, humanized B-Ly1 B-HH6-B-KV1 wildtype (non-glycoengineered)","Antitumor activity, later outcome",[1],most of Z138 tumor xenografts showed complete remission
same,Difference in antitumor activity between wt and glycoengineered versions,[1],No significant differences
same,Antitumor activity at time of control termination,[1]; 19 days after treatment initiation,all antibody tumors regressed
B-HH6-B-KV1: Type II anti-CD20 antibody (humanized B-Ly1 antibody) of Example 2; FIG. 2 legend calls it B-HH6-B-KV1 GE,Ratio of the binding capacities to CD20 on Raji cells compared to rituximab,[2],reduces binding capacity compared to rituximab
